Values of other authors in patent US8481574B2, “Compounds as cannabinoid receptor ligands” (priority 2006, dated 2013).

Key:
[1] = at fully efficacious doses
[2] = system: animal models of pain; details: animal models of acute thermal pain, persistent pain, inflammatory pain and neuropathic pain
[3] = system: rodent models of pain; details: rodent models of neuropathic, incisional, and both chronic and acute inflammatory pain
[4] = system: rat; details: rat formalin model of persistent pain
[5] = system: microglia; details: in vitro
[6] = system: apolipoprotein E knockout mice; details: low doses
[7] = system: CB1 receptor knockout mice
[8] = system: mice; details: model for post-menopausal osteoporosis
[9] = system: osteoclast

CN1CCCCC1Cn1cc(C(=O)c2cc([N+](=O)[O-])ccc2I)c2ccccc21 (stereo not shown) [AM-1241]
CB1 receptor-mediated CNS side effects [1]: devoid of typical CB1 receptor-mediated CNS side effects
analgesic efficacy [2]: robust analgesic efficacy

COc1ccc2c(c1)c(CCN1CCOCC1)c(C)n2C(=O)c1cccc(Cl)c1Cl [GW405833]
efficacy in pain models [3]: efficacious
CB1 receptor-mediated CNS side effects [1]: devoid of typical CB1 receptor-mediated CNS side effects

CCCCCCC(C)(C)c1cc(OC)c([C@@H]2C=C(CO)[C@@H]3C[C@H]2C3(C)C)c(OC)c1 [HU-308]
antinociceptive response [4]: elicits an antinociceptive response

CCCC(C)(C)c1ccc2c(c1)OC(C)(C)[C@@H]1CC=C(C)C[C@@H]21 [JWH-133]
effect on β-amyloid-induced microglial activation and neurotoxicity [5]: abrogated β-amyloid-induced microglial activation and neurotoxicity

(−)-Δ^9-Tetrahydrocannabinol [Δ^9-THC]
effect on progression of atherosclerotic lesions [6]: slowed the progression of atherosclerotic lesions
analgesic efficacy [7]: retains some analgesic efficacy

SR144528
effect on ovariectomy-induced bone loss [8]: reverse ovariectomy-induced bone loss
effect on osteoclast activity [9]: inhibit osteoclast activity
